Patent publication US5508269A, “Aminoglycoside formulation for aerosolization” (priority 1994, dated 1996)
Converted amounts (≈) assume the structure as drawn. “And” between values parts separate entries of the source, which are not always exact repeats. Equal entries are not always repeated. Where two headings read alike, the source gives them in different places.

Tests used:
[1] = cited from earlier work; for health of CF patients (in words): aerosol administration, carbenicillin and gentamicin, twenty CF patients, Lancet 1981
[2] = tested on: Pseudomonas aeruginosa; experiment: Previously studied 80 mg doses of tobramycin; format: in vivo, patients; details: initially
Source text: If any degree of drug resistance developed, only a small percentage of patients would be effectively treated.

[3] = clinical; format: in vivo, CF patients; details: for Sputum Tobramycin Concentrations / Serum Tobramycin: Baseline; for Sputum Tobramycin Concentrations: per subject or mean line; for Serum Tobramycin / concentration at 1 h / concentration at 2 h: single subjects 001-005 in order; for concentration at 10 min / concentration at 1 h / concentration at 2 h: human, inhaled or intranasal, 300 mg; for concentration at 1 h: 1 hour after aerosol; for concentration at 2 h: 2 hours after aerosol
Source text: The doses were separated by at least 2 days and not more than 5 days.

[4] = Preliminary pharmacokinetics of tobramycin in sputum after aerosol; format: in vivo, patients with CF; details: 20 mg/ml in 30 ml half normal saline; for Cmax: Ultraneb 99, 200 inhalations, twenty patients
Method: These levels ranged from 310.4 μg/gm to 5,941 μg/gm, with median level at 1,606 μg/gm). The sputum levels declined rapidly after 30 minutes, reaching a minimum at four hours.

[5] = Accelerated stability study at 40° C; format: physicochemical; details: pH greater than 7.0
Source text: The higher temperature was chosen to accelerate any degradation process. […] Color was examined by KS scale.

[6] = format: in vivo, CF patients; details: for ± % change FEV1: 30 min after aerosol, 300 mg in 5 ml 1/4 NS, single subjects 001-005 in order
Method: The doses were separated by at least 2 days and not more than 5 days. Peak serum and sputum concentrations were assessed and results are seen in Tables 5 and 6.
(§1) Sixty patients were enrolled. Each patient received, in random order, one administration from each nebulizer delivery system. Each aerosol administration was separated by a minimum of 48 hr. […] Airway irritation and acute bronchospasm were assessed by measuring spirometry immediately prior to and 30 min post-completion of aerosol administration. A decrease in FEV1>15% in the 30 min spirometry test was considered evidence of bronchospasm.

[7] = tested on: Pseudomonas aeruginosa; experiment: MIC of tobramycin for P. aeruginosa isolates from sputum of CF patients; format: cell-based; details: for # of Patients (isolate with maximum density) / Cumulative Frequency (isolate with maximum density): most common isolate; for Cumulative Frequency (isolate with maximum MIC): most resistant isolate
Method: This study was a one-year review of all microbiologic records at Children's Hospital in Seattle. All positive Pseudomonas aeruginosa culture data were collated that occurred in patients with Cystic Fibrosis. If multiple cultures from a single individual had been obtained, the first culture was taken as representative.
MIC90 is the concentration of the drug which inhibits 90% of Pseudomonas aeruginosa isolates. Sputum samples from CF patients were cultured to produce individual colony forming units (CFUs). The MIC was then determined for individual CFUs. CFUs were considered different isolates if their MICs were different.

[8] = cited from earlier work
[9] = Clinical Trial II, sputum tobramycin levels with three nebulizers; format: in vivo, patients with cystic fibrosis; details: for sputum tobramycin level, grand mean: 20 patients
Method: This was an open label, multicenter, randomized, cross-over three arm study. Each arm was different nebulizer delivery system. Two arms deliver the same tobramycin formulation.
2. […] The number of inhalations required as recorded.
3. […] The number of inhalations required was recorded.
as §1, with “Sixty patients were enrolled.” left out
Immediately after completing the aerosol therapy, the subject rinsed with 30 ml of normal saline through the mount, gargled for 5-10 seconds and expectorated the rinse. This was repeated for a total of three rinses. Sputum specimens were collected at 10 minutes after rinsing oral cavity and 2 hours after completion of the aerosol drug administration. […] Spirometry was obtained 30 minutes following completion of the aerosol drug administration. Following the last aerosol treatment of the study, patients received a brief physical exam after post-spirometry has been measured.

[10] = tested on: P. aeruginosa; details: cited from earlier work
[11] = cited from earlier work; remark: listed apart in the source
[12] = tested on: Pseudomonas aeruginosa; details: Pedia Pulmonol. 6:91-8 (1989); cited from earlier work
[13] = Sidestream, 300 mg in 5 ml 1/4 NS
[14] = serum, Serum Tobramycin, Pari LC, 300 mg in 5 ml 1/4 NS

For CC1(C)S[C@@H]2[C@H](NC(=O)C(C(=O)O)c3ccccc3)C(=O)N2[C@H]1C(=O)O (stereo partly shown) [carbenicillin], the “health of CF patients (in words)” value [1] is given as “can improve the health of CF patients”.

In the case of NC[C@H]1O[C@H](O[C@H]2[C@H](O)[C@@H](O[C@H]3O[C@H](CO)[C@@H](O)[C@H](N)[C@H]3O)[C@H](N)C[C@@H]2N)[C@H](N)C[C@@H]1O [tobramycin], the “share of patients in whom dose would be predicted to be efficacious” value [2] is reported as “sixty to seventy”, the “Sputum Tobramycin Concentrations” value ([3]; Pari LC, 300 mg in 5 ml 1/4 NS) is reported as “bql (< 20 μg/gm)” and the “Serum Tobramycin” value ([3]; Pari LC, 300 mg in 5 ml 1/4 NS) is reported as “not detected”. For the same molecule, the “achievement of target sputum concentration (in words)” value ([3]; Sidestream and Pari LC, target 128-1000 μg/g, 300 mg in 5 ml 1/4 NS) was “able to achieve a target concentrations of tobramycin in sputum”, the “Sputum Tobramycin Concentrations” value [3, 13] was “bql (< 20 μg/gm)” and the “Serum Tobramycin” value [3, 13] was “not detected”. It also gave a concentration at 10 min ([3]; in vivo, Sidestream, 10 min, 5 subjects) of 527000 ± 586000 ng/g, a concentration at 1 h [3, 14] of 0.5 µg/mL and a concentration at 2 h [3, 14] of 0.4 µg/mL. It also gave a concentration at 1 h ([3]; serum, Serum Tobramycin, Sidestream, 300 mg in 5 ml 1/4 NS) of 0.2 µg/mL, a concentration at 10 min ([3]; sputum, 300 mg in 5 ml of 60 mg/ml in 1/4 NS, read-out: sputum concentration achieved (target concentration)) of over 128000 ng/g and a concentration at 10 min ([3]; sputum, Sputum Tobramycin Concentrations, Mean/Std Dev, Pari LC, 10 min, 5 subjects) of 811000 ± 677000 ng/g. The concentration at 2 h ([3]; sputum, Sputum Tobramycin Concentrations, Sidestream, 300 mg in 5 ml 1/4 NS) was 57500 ng/g, the “time of minimum sputum level” value ([4]; Ultraneb 99) was “four” and the Cmax ([4]; human, sputum, inhaled or intranasal, read-out: peak sputum level, median) was 1.61e+06 ng/g. For the same molecule, the Cmax ([4]; human, sputum, inhaled or intranasal, read-out: peak sputum levels, range) was 310000 to 5.94e+06 ng/g, the Tmax ([4]; human, sputum, inhaled or intranasal, Ultraneb 99, read-out: time of peak sputum levels after therapy) was 10 to 30 min and the “degradation of tobramycin (in words)” value [5] was “degradation of tobramycin occurs”. For the same molecule, the “safety of dosage (in words)” value ([6]; 300 mg in 5 ml of 60 mg/ml in 1/4 NS) was “extremely safe”, the “± % change FEV1” value ([6]; Pari LC) was -1.2% and 1.2% and -0.6% and -2% and -5% and the “± % change FEV1” value ([6]; Sidestream) was -2.2% and 0.0% and -7.6% and -1%. The “treatment of exacerbations in CF (in words)” value ([1]; parenteral, short period of time) was “successfully treat exacerbations which occur in patients with CF”, the “share of isolates whose MIC is exceeded approximately ten-fold by a sputum level of 128 μg/gm” value ([7]; 128 μg/gm sputum level approximately ten-fold greater than MIC) was 90% and the “share of isolates whose MIC is reached by a sputum level of 128 μg/gm” value ([7]; 128 μg/gm sputum level greater than or equal to MIC) was 98%. The “# of Patients (isolate with maximum density)” value (from here on “# of Patients”) ([7]; MIC 1 μg/ml, n=58) was 9, the “Cumulative Frequency (isolate with maximum density)” value ([7]; MIC 1 μg/ml, n=58) was 78% and the “Cumulative Frequency (isolate with maximum MIC)” value ([7]; MIC 1 μg/ml, n=58) was 67%. For the same molecule, the “# of Patients” value ([7]; MIC 2 μg/ml, n=58) was 3, the “Cumulative Frequency (isolate with maximum density)” value ([7]; MIC 2 μg/ml, n=58) was 83% and the “Cumulative Frequency (isolate with maximum MIC)” value ([7]; MIC 2 μg/ml, n=58) was 75%. The “# of Patients” value ([7]; MIC 4 μg/ml, n=58) was 2, the “Cumulative Frequency (isolate with maximum density)” value ([7]; MIC 4 μg/ml, n=58) was 86% and the “Cumulative Frequency (isolate with maximum MIC)” value ([7]; MIC 4 μg/ml, n=58) was 83%. For the same molecule, the “# of Patients” value ([7]; MIC 8 μg/ml, n=58) was 2, the “Cumulative Frequency (isolate with maximum density)” value ([7]; MIC 8 μg/ml, n=58) was 90% and the “Cumulative Frequency (isolate with maximum MIC)” value ([7]; MIC 8 μg/ml, n=58) was 86%. The “# of Patients” value ([7]; MIC 16 μg/ml, n=58) was 2, the “Cumulative Frequency (isolate with maximum density)” value ([7]; MIC 16 μg/ml, n=58) was 93% and the “Cumulative Frequency (isolate with maximum MIC)” value ([7]; MIC 16 μg/ml, n=58) was 90%. For the same molecule, the “# of Patients” value ([7]; MIC 32 μg/ml, n=58) was 1, the “Cumulative Frequency (isolate with maximum density)” value ([7]; MIC 32 μg/ml, n=58) was 95% and the “Cumulative Frequency (isolate with maximum MIC)” value ([7]; MIC 32 μg/ml, n=58) was 93%. The “# of Patients” value ([7]; MIC 64 μg/ml, n=58) was 1, the “Cumulative Frequency (isolate with maximum density)” value ([7]; MIC 64 μg/ml, n=58) was 97% and the “Cumulative Frequency (isolate with maximum MIC)” value ([7]; MIC 64 μg/ml, n=58) was 95%. For the same molecule, the “# of Patients” value ([7]; MIC 128 μg/ml, n=58) was 2, the “Cumulative Frequency (isolate with maximum density)” value ([7]; MIC 128 μg/ml, n=58) was 98% and the “Cumulative Frequency (isolate with maximum MIC)” value ([7]; MIC 128 μg/ml, n=58) was 98%. For the same molecule, the “# of Patients” value ([7]; MIC 256 μg/ml, n=58) was 1, the “Cumulative Frequency (isolate with maximum density)” value ([7]; MIC 256 μg/ml, n=58) was 100% and the “Cumulative Frequency (isolate with maximum MIC)” value ([7]; MIC 256 μg/ml, n=58) was 100%. The “# of Patients” value ([7]; MIC .25 μg/ml, n=58) was 26, the “Cumulative Frequency (isolate with maximum density)” value ([7]; MIC .25 μg/ml, n=58) was 45% and the “Cumulative Frequency (isolate with maximum MIC)” value ([7]; MIC .25 μg/ml, n=58) was 36%. For the same molecule, the “# of Patients” value ([7]; MIC .5 μg/ml, n=58) was 10, the “Cumulative Frequency (isolate with maximum density)” value ([7]; MIC .5 μg/ml, n=58) was 63% and the “Cumulative Frequency (isolate with maximum MIC)” value ([7]; MIC .5 μg/ml, n=58) was 53%. For the same molecule, the MIC ([7]; Pseudomonas aeruginosa) was 128 mg/L, the inhibition at 128 µg/mL ([7]; Pseudomonas aeruginosa, read-out: inhibition of most resistant and most common isolates) was 98% and the MIC ([7]; Table 3: most tobramycin-resistant isolate of each patient, n=58, number of patients on same line) was “.25 mg/L and .5 mg/L and 1 mg/L and 2 mg/L and 4 mg/L and 8 mg/L and 16 mg/L and 32 mg/L and 64 mg/L and 256 mg/L”. For the same molecule, the MIC ([7]; Table 4: most common isolate (maximum density) of each patient, n=58, number of patients on same line) was “.25 mg/L and .5 mg/L and 1 mg/L and 2 mg/L and 4 mg/L and 8 mg/L and 16 mg/L and 32 mg/L and 64 mg/L and 128 mg/L and 256 mg/L”, the binding by sputum [8] was “up to 90%” and the “sputum tobramycin level, grand mean” value ([9]; Pari LC, 0, 300 mg in 5 ml 0.225 NS) was 0 µg. The “sputum tobramycin level, grand mean” value ([9]; Pari LC, 10 min, 300 mg in 5 ml 0.225 NS) was 639.1 µg, the “sputum tobramycin level, grand mean” value ([9]; Pari LC, 1 hr, 300 mg in 5 ml 0.225 NS) was 117.0 µg and the “sputum tobramycin level, grand mean” value ([9]; Pari LC, 2 hr, 300 mg in 5 ml 0.225 NS) was 77.6 µg. For the same molecule, the “sputum tobramycin level, grand mean” value ([9]; Sidestream, 0 hr, 300 mg in 5 ml 0.225 NS) was 0 µg, the “sputum tobramycin level, grand mean” value ([9]; Sidestream, 10 min, 300 mg in 5 ml 0.225 NS) was 465.3 µg and the “sputum tobramycin level, grand mean” value ([9]; Sidestream, 1 hr, 300 mg in 5 ml 0.225 NS) was 75.7 µg. For the same molecule, the “sputum tobramycin level, grand mean” value ([9]; Sidestream, 2 hr, 300 mg in 5 ml 0.225 NS) was 88.8 µg, the “sputum tobramycin level, grand mean” value ([9]; Ultra Neb, 0 hr, 600 mg in 30 ml 0.45% NS) was 0 µg and the “sputum tobramycin level, grand mean” value ([9]; Ultra Neb, 10 min, 600 mg in 30 ml 0.45% NS) was 1335.7 µg. The “sputum tobramycin level, grand mean” value ([9]; Ultra Neb, 1 hr, 600 mg in 30 ml 0.45% NS) was 360.0 µg, the “sputum tobramycin level, grand mean” value ([9]; Ultra Neb, 2 hr, 600 mg in 30 ml 0.45% NS) was 158.8 µg and the “concentrations delivered to the endobronchial space (in words)” value ([9]; formulation used with a jet nebulizer) was “in the efficacious range”. The “endobronchial concentration with half dosage (in words)” value ([9]; human, in vivo) was “sufficient to achieve therapeutically effective concentration of tobramycin in the endobronchial space”, the “reduction in the density of P. aeruginosa in sputum, factor” value ([10]; aerosolized, all three 28-day periods) was 100 and the “improvement with aerosolized treatment (in words)” value ([10]; entire three-period study) was “significant improvement”. The solubility [11] was 160 mg/mL (≈ 342 mM) and the “efficacy of 80 mg doses (in words)” value [12] was “reported effective”.

In the case of gentamicin, the “health of CF patients (in words)” value [1] is listed as “can improve the health of CF patients”.
